Assay results: ChEMBL document CHEMBL1201862, “PubChem BioAssay data set” (2004)
Activity calls are given as the source filed them.

Experiments:
H4 = experiment: Luminescence Cell-Based Dose Response HTS to Identify Activators of 5'UTR Stem-Loop Driven Prion Protein mRNA Translation in H4 Neuroglioblastoma Cells. [Related pubchem assays: 1829 (Project Summary), 1814 (Primary HTS)]; type: functional; conditions: Homo sapiens
[1] = Luminescence Cell-Based Dose Confirmation HTS to Identify Activators of 5'UTR Stem-Loop Driven Alpha-Synuclein mRNA Translation in H4 Neuroglioblastoma Cells. [Related pubchem assays: 1829 (Project Summary), 1814 (Primary HTS)]; type: functional
[2] = Luminescence Cell-Based Dose Response HTS to Identify Activators of Luciferase Translation or Activity in H4 […] Cells. [Related pubchem assays: 1829 (Project Summary), 1814 (Primary HTS)]; type: functional
[3] = molecular target: FAD-linked sulfhydryl oxidase ALR (Homo sapiens, UniProt P55789); experiment: inhibitors of human ALR sulfhydryl oxidase, dose response, biochemical, H2O2 detection, luminescence, cherry-pick (AID 493248)
[4] = inhibitors of SNCA 5'UTR-driven reporter translation, confirmation, H4 neuroglioma cells, luminescence (AID 1988); type: functional, cell-based
[5] = inhibitors of firefly luciferase expression or activity, dose response, H4 neuroglioma cells, luminescence (AID 1990); type: functional, cell-based
[6] = Luminescence Cell-Based Dose Response HTS to Identify Inhibitors of 5'UTR Stem-Loop Driven Prion Protein mRNA Translation in H4 Neuroglioblastoma Cells. [Related pubchem assays: 1827 (Project Summary), 1813 (Primary HTS)]; type: functional
[7] = Luminescence Cell-Based Dose Retest to Confirm Inhibitors of Cancer Stem Cells. [Related pubchem assays (depositor defined):AID2717, AID2721]; type: functional; conditions: Homo sapiens
[8] = molecular target: T1, Heat shock factor protein 1 (Mus musculus, UniProt P38532); experiment: HSF1 potentiators in luciferase reporter cells, confirmation, cell-based, NIH3T3, luminescence, dose retest (AID 435004); type: functional;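 note: stress induced by proteasome inhibitor MG132 added 30 min after compound; luciferase reporter driven by HSF1 response element in NIH3T3 cells; actives raise luminescence as potentiators of the MG132 stress response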
T1 sequence (P38532 whole entry): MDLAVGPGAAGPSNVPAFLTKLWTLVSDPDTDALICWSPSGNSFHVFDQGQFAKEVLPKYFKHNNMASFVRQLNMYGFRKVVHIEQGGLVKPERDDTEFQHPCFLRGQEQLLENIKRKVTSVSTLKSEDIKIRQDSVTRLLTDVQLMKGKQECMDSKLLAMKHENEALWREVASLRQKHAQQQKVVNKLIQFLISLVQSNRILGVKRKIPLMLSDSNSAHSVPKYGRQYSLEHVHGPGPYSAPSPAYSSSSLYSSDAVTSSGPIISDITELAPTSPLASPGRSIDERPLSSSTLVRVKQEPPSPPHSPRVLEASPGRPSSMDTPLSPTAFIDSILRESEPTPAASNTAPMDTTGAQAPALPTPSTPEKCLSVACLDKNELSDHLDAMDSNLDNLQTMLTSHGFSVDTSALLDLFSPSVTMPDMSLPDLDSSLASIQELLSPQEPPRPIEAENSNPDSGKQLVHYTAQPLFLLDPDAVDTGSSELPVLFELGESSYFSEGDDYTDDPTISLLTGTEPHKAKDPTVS

BJ [9] = experiment: cytotoxicity toward BJ-TERT-LT-ST fibroblasts, dose response, cell-based, RAS-independent, luminescence (AID 1935); type: functional; conditions: Homo sapiens;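 note: BJ fibroblasts immortalized with TERT plus LT and ST oncogenes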
BJ [10] = experiment: cytotoxicity toward BJ-TERT fibroblasts, dose response, cell-based, RAS-independent, luminescence (AID 1933); type: functional; conditions: Homo sapiens
[11] = cytotoxicity toward DRD oncogenic fibroblasts, dose response, cell-based, non-viral oncogenic, luminescence (AID 1934); type: functional; conditions: Homo sapiens
BJ [12] = experiment: cells; type: functional, cell-based; conditions: Homo sapiens
Cytochrome P450 2C19 = Cytochrome P450 2C19 (Homo sapiens, UniProt P33261); experiment: Cytochrome panel assay with activity outcomes. Panel member name: p450-cyp2c19 Compounds with AC50 equal or less than 10 uM are considered active; type: functional; conditions: read-out: AC50
INS1 = experiment: beta cell apoptosis inhibitors, cytokine rescue, dose response, luminescence, retest (AID 449756); type: functional, cell-based; conditions: Rattus norvegicus;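 note: cell death triggered by IL-1 beta plus TNF-alpha plus IFN-gamma mixture; protective hits raise ATP signal compared with cytokine alone wells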
Streptococcus = experiment: Group A Streptococcus viability loss, dose response, counter-screen for streptokinase expression inhibitor project, luminescence, BacTiterGlo (AID 1915); type: functional, organism-based;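 note: potency for reduction of bacterial viability or growth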
[13] = test system: Streptococcus sp. 'group A'; experiment: growth inhibition of control SK(-) GAS strain, dose response, counter-screen for streptokinase expression inhibitor project, luminescence, kanamycin, BacTiterGlo, confirmation (AID 1900); type: functional, organism-based
Paired box protein Pax-8 = Paired box protein Pax-8 (Homo sapiens, UniProt Q06710); experiment: inhibitors of PAX8-driven TPO luciferase reporter, dose response, RMG-I cells, cherry-pick (AID 687027); type: functional, cell-based;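 note: luciferase reporter driven by Pax8 target thyroperoxidase promoter measured by SteadyGlo luminescence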
[14] = cytotoxicity toward NIH3T3 fibroblasts, dose response, counter-screen, cell-based, ATP luminescence, mouse fibroblasts (AID 2010); type: functional;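 note: cells exposed to compound for about 90 hours before reading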
Cytochrome P450 2D6 = Cytochrome P450 2D6 (Homo sapiens, UniProt P10635);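 note: CYP2D6 member of a cytochrome P450 panel assay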
[15] = inhibitors of intracellular T. cruzi replication, confirmation, NIH3T3 host cells, beta-gal luminescence (AID 2044); type: functional, cell-based;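 note: intracellular parasites grown in NIH/3T3 mouse fibroblasts as host cells; luminescent beta-galactosidase reporter signal from transgenic T. cruzi replicating inside host cells; inhibitors lower the luminescence signal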

FAD-linked sulfhydryl oxidase ALR, sequence (P55789 whole entry): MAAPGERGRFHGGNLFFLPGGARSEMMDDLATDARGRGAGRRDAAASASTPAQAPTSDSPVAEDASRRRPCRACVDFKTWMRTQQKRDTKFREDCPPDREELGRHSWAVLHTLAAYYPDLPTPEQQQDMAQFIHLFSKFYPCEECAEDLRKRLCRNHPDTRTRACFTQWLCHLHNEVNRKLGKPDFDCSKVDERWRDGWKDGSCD
Cytochrome P450 2D6, sequence (P10635 whole entry): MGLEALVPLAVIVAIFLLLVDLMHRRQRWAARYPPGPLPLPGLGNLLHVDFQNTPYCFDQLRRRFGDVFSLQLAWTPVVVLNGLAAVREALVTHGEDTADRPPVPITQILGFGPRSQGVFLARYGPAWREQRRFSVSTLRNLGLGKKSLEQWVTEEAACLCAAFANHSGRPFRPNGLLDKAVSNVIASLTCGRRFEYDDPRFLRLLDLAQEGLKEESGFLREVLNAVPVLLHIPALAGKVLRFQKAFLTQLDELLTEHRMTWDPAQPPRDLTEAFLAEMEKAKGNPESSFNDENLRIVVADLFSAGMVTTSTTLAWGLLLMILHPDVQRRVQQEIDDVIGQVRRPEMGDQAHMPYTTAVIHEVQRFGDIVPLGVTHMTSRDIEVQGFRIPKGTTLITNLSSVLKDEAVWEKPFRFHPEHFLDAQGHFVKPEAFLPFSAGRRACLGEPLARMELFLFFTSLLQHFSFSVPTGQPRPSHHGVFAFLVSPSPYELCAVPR
Cytochrome P450 2C19, sequence (P33261 whole entry): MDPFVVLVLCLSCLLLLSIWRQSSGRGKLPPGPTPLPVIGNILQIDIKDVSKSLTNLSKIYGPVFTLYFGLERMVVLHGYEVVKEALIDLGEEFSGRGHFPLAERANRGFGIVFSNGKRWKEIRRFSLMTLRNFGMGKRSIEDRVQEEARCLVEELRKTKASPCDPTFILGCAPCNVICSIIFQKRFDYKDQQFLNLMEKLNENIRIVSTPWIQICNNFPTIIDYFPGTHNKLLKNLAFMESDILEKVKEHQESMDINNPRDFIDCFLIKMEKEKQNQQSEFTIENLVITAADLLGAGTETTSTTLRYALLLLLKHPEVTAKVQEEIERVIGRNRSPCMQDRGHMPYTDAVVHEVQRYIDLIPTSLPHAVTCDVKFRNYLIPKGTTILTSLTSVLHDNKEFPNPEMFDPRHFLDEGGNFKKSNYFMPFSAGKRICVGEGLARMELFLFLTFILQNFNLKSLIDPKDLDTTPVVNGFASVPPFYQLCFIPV
Paired box protein Pax-8, sequence (Q06710 whole entry): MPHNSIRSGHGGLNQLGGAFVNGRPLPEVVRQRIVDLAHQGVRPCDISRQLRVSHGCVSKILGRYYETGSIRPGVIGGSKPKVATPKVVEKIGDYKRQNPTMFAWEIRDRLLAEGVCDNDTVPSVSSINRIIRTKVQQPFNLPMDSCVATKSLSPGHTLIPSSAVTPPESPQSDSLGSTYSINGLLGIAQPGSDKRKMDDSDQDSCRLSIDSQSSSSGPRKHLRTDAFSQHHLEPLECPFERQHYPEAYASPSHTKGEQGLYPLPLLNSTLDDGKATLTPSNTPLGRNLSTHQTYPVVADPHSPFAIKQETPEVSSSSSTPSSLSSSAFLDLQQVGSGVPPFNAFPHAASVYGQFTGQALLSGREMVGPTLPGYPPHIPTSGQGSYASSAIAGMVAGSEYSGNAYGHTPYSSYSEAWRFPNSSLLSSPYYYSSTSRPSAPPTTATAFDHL

Compound: CC1Oc2ccccc2C=C1/C=C1/SC(N2CCOCC2)=NC1=O (centres undefined)
- EC50 (H4): 10.9 µM (active)
- EC50 [1]: 7.43 µM (active)
- EC50 [2]: 37.3 µM (active)

Compound: Nc1ccccc1Sc1c[nH]c2ccccc12
- AC50 [3]: 24.5 µM (active)

Compound: Cc1cc(C(=O)C(=O)O)c(C)n1-c1ccc(Cl)c(Cl)c1
- AC50 [3]: 1.39 µM (active)

Compound: CC(Oc1cccc(Cl)c1)C(=O)Nc1ccc([N+](=O)[O-])cn1 (centres undefined)
- EC50 [4]: 59.8 µM (active)
- EC50 [5]: 21.4 µM (active)
- EC50 [6]: > 120 µM (not active)

Compound: CCC(C)n1ncn(-c2ccc(N3CCN(c4ccc(O)cc4)CC3)cc2)c1=O (centres undefined)
- EC50 [5]: > 120 µM (not active)
- AC50 [7]: 1.2 µM (active)
- EC50 [6]: 19.7 µM (active)

Compound: CC(Sc1nnc2ccccn12)C(N)=O (centres undefined)
- EC50 [8]: > 260 µM (inactive)

Compound: O=C(CC1Sc2ccccc2NC1=O)c1ccc(Br)cc1 (centres undefined)
- EC50 (H4): 36.6 µM (active)
- EC50 [1]: 5.6 µM (active)
- EC50 [2]: 7.15 µM (active)

Compound: Cc1ccc(S(=O)(=O)NC(=O)Nc2ccc(C)cn2)cc1
- EC50 [8]: > 260 µM (inactive)

Compound: Cc1sc2c(c1C)CN(CCN1CCOCC1)CN2C(=O)c1ccccc1
- EC50 (H4): > 120 µM (not active)
- EC50 [1]: 19.9 µM (active)
- EC50 [2]: 13.7 µM (active)

Compound: O=C(c1cccc(F)c1)N1CCN=C1SCc1cccnc1
- AC50 [3]: 0.123 µM (active)

Compound: Cc1cc(NC(=O)c2cccc(Br)c2)[nH]n1
- EC50 [1]: 2.47 µM (active)
- EC50 [2]: 54.5 µM (active)

Compound: CC(Oc1ccc(F)cc1Br)c1nc(O)c2ccccc2n1 (centres undefined)
- EC50 [8]: 74.4 µM (active)

Compound: CC1(C)CN(c2cccc(Br)c2)C1=O
- EC50 [8]: > 260 µM (inactive)

Compound: CC(=O)Nc1ccccc1OC(C)C(=O)N1CC(C)CC(C)C1 (centres undefined)
- EC50 [8]: > 260 µM (inactive)

Compound: Cc1ccc(C(=O)c2cc([N+](=O)[O-])ccc2N2CC(C)OC(C)C2)cc1 (centres undefined)
- EC50 (BJ [9]): 16.7 µM (active)
- EC50 (BJ [10]): 13.8 µM (active)
- EC50 [11]: 12.5 µM (active)
- EC50 (BJ [12]): 31.6 µM (active)

Compound: N/C(=C\C(=O)c1cc(Cl)ccc1O)C(Cl)(Cl)Cl
- EC50 (BJ [9]): 7.09 µM (active)
- EC50 (BJ [10]): 3.92 µM (active)
- EC50 [11]: 5.12 µM (active)
- EC50 (BJ [12]): 5.09 µM (active)

Compound: Cc1ccc2c(c1)C(N1CCCC1=O)CC(c1ccco1)N2 (centres undefined)
- EC50 (H4): > 120 µM (not active)
- EC50 [1]: 14.6 µM (active)
- EC50 [2]: 16.1 µM (active)

Compound: CCC1CCCCN1C(=O)COC(=O)c1cc2ccccc2cc1O (centres undefined)
- EC50 [8]: > 260 µM (inactive)

Compound: Cc1ccccc1NCCC(=O)Nc1ccc(Cl)cc1
- AC50 [3]: 4.88 µM (active)

Compound: O=C(c1ccccc1F)N1CCN=C1SCc1cccnc1
- AC50 [3]: 0.552 µM (active)

Compound: CN(C)S(=O)(=O)Oc1ccsc1C(=O)Nc1ccccc1Cl
- EC50 [4]: 15.7 µM (active)
- EC50 [5]: > 120 µM (not active)
- EC50 [6]: > 120 µM (not active)

Compound: COc1ccccc1N1CCN(C(=O)Cn2nc(C(F)(F)F)c3c2CCC3)CC1
- EC50 [4]: > 120 µM (not active)
- EC50 [5]: > 120 µM (not active)
- EC50 [6]: > 120 µM (not active)

Compound: O=C(COC(=O)/C=C/c1ccc(Br)o1)NCCCN1CCCC1=O
- EC50 [8]: > 260 µM (inactive)

Compound: O=C(CC1C=Cc2ccccc2N1C(=O)c1ccccc1)c1ccccc1 (centres undefined)
- EC50 [8]: > 260 µM (inactive)

Compound: c1ccc(CCc2nc(-c3ccccc3)no2)cc1
- EC50 (H4): 6.54 µM (active)
- EC50 [1]: 56.8 µM (active)
- AC50 (Cytochrome P450 2C19): 0.501 µM (inconclusive)
- EC50 [2]: 51.8 µM (active)

Compound: CCCCN1C(=O)/C(=C/c2c[nH]nc2-c2ccccc2)SC1=S
- EC50 [8]: > 260 µM (inactive)

Compound: COc1ccc(S(=O)(=O)Cc2ccc(C(=O)N3CCN(c4cccc(C)c4C)CC3)o2)cc1
- EC50 (BJ [9]): > 75 µM (inconclusive)
- EC50 (BJ [10]): > 150 µM (not active)
- EC50 [11]: 20.4 µM (active)
- EC50 (BJ [12]): > 150 µM (not active)

Compound: O=C(NCc1csc(-c2ccccc2)n1)c1cc(F)cc2c1OCOC2
- EC50 (H4): 15.5 µM (active)
- EC50 [1]: 14.9 µM (active)
- EC50 [2]: 13.1 µM (active)

Compound: Cc1ccc(NCC(=O)N=Nc2c(O)[nH]c3ccc([N+](=O)[O-])cc23)cc1
- EC50 (H4): 0.303 µM (active)
- EC50 [1]: 24.6 µM (active)
- EC50 [2]: 0.255 µM (active)

Compound: CCO/C(O)=C1\C(C)=Nc2sc(C(=O)c3ccc(C)cc3)c(N)c2C1c1ccc(C(=O)OC)cc1 (centres undefined)
- EC50 [4]: > 120 µM (not active)
- EC50 [5]: > 120 µM (not active)
- EC50 [6]: > 120 µM (not active)

Compound: CCOC(=O)C1(Cc2cccc(OC)c2)CCCN(C(=O)CCc2cccnc2)C1 (centres undefined)
- EC50 (H4): > 120 µM (not active)
- EC50 [1]: 15.2 µM (active)
- EC50 [2]: 12.6 µM (active)

Compound: Cc1ccc(C(=O)O/N=C(\N)Cc2cccc3ccccc23)cc1
- EC50 [8]: > 260 µM (inactive)

Compound: Cc1cccc(C(=O)NNC(=O)c2ccc(Cl)cc2)c1O
- EC50 (H4): 98.9 µM (active)
- EC50 [1]: 23.3 µM (active)
- EC50 [2]: 7.11 µM (active)

Compound: COc1ccc(F)cc1S(=O)(=O)Nc1ccc2c(c1)OCO2
- EC50 [8]: > 260 µM (inactive)

Compound: COc1cnn(-c2cc(Oc3ccc(C)cc3)ncn2)c(=O)c1Cl
- EC50 [8]: > 260 µM (inactive)

Compound: CC(=O)Nc1ccc(NC2CCCCC2NS(=O)(=O)c2ccccc2)cc1 (centres undefined)
- AC50 [3]: 0.736 µM (active)

Compound: Cc1nc2ccccc2c(=O)n1CCc1ccc(O)cc1
- AC50 [3]: 3.66 µM (active)

Compound: O=C(COc1ccccc1-c1ccccc1)N/N=C/c1ccc2ccccc2c1
- AC50 (INS1): 9.14 µM (active)
- EC50 (BJ [9]): 0.472 µM (active)
- EC50 (BJ [10]): 0.364 µM (active)
- AC50 [7]: 0.258 µM (active)
- EC50 [11]: 0.475 µM (active)
- EC50 (BJ [12]): 0.568 µM (active)
- EC50 (Streptococcus): 2.41 µM (active)
- EC50 [13]: 4.87 µM (active)
- AC50 (Paired box protein Pax-8): 2.1 µM (active)

Compound: C/C(=N\OC(=O)NC1CCCCC1)c1sc(-c2ccccc2)nc1C
- EC50 (H4): > 120 µM (inconclusive)
- EC50 [1]: 22 µM (active)
- EC50 [14]: > 60 µM (not active)
- EC50 [2]: 0.673 µM (active)
- AC50 (Cytochrome P450 2D6): 28.2 µM (inconclusive)
- EC50 [15]: 2.05 µM (active)

Compound: COc1cccc2cc(/C(=N/O)c3ccc(Br)cc3)oc12
- EC50 [4]: 12.8 µM (active)
- EC50 [5]: 14.6 µM (active)
- EC50 [6]: 18.6 µM (active)
